Experimental data: PubChem BioAssay AID434995 (Southern Research Specialized Biocontainment Screening …, 2010)
The source made the active and inactive calls. The rule behind the calls is not given here.

Columns and labels:
[1] = system: S. Typhi PhoP-regulated promoter GFP reporter, 4 h; experiment: PhoP regulon inhibitors in S. Typhi, SAR follow-up, purified and synthesized compounds, round 3 (AID 434995)
[2] = as above; details: S. Typhi PhoP-regulated promoter GFP reporter, 4 h

| Structure (SMILES) | inhibition ([2]; at 150 µM (top of the series)) | other results |
| --- | --- | --- |
| S=C(NCCc1ccc(Cl)cc1)Nc1ccncc1 | – | IC50 [1]: 20.7 µM |
| COc1ccccc1CNC(=S)Nc1ccncc1 | 11.4% (inactive) | – |
| Cc1ccccc1CNC(=S)Nc1ccncc1 | -37.8% (inactive) | – |
| O=C(Nc1ccc(Cl)cc1)N1CCCN(Cc2ccccc2Br)C1 | – | IC50 [1]: 116 µM |
| Cc1ccc(NC(=O)N2CCCN(Cc3ccccc3F)C2)cc1 | -12.7% (inactive) | – |
| O=C(Nc1cccc(C(F)(F)F)c1)N1CCCN(Cc2ccccc2F)C1 | 8.86% (inactive) | – |
| N#Cc1ccccc1NC(=S)NCc1ccc(Cl)cc1 | -27.4% (inactive) | – |
| N#Cc1ccc(NC(=S)NCc2ccc(Cl)cc2)cc1 | -25.7% (inactive) | – |
| O=C(Nc1cccc(I)c1)N1CCCN(Cc2ccccc2F)C1 | -16.5% (inactive) | – |
| O=C(Nc1ccc(I)cc1)N1CCCN(Cc2ccccc2F)C1 | – | IC50 [1]: 81.6 µM |
| O=C(Nc1cccc(F)c1)N1CCCN(Cc2ccccc2F)C1 | 25.8% (inactive) | – |
| O=C(Nc1ccc(Cl)cc1)N1CCCN(Cc2ccc(Br)cc2)C1 | – | inhibition ([2]; at 75 µM (top of the series)): -28.5% (inactive) |
